Consider 13 compounds from US12247028B2, “Azabicyclo and diazepine derivatives” (Alcon Inc., priority 2017, dated 2025).

Molecules are shown by their SMILES. Like-named read-outs stand apart in the source and are kept apart here. Some results are limits rather than exact numbers.

The target of assay [1] is T1, Human muscarinic receptor M4 (Homo sapiens, UniProt P08173).
T1 construct: host or cells: cell membrane homogenates
T1 sequence (P08173 1-479): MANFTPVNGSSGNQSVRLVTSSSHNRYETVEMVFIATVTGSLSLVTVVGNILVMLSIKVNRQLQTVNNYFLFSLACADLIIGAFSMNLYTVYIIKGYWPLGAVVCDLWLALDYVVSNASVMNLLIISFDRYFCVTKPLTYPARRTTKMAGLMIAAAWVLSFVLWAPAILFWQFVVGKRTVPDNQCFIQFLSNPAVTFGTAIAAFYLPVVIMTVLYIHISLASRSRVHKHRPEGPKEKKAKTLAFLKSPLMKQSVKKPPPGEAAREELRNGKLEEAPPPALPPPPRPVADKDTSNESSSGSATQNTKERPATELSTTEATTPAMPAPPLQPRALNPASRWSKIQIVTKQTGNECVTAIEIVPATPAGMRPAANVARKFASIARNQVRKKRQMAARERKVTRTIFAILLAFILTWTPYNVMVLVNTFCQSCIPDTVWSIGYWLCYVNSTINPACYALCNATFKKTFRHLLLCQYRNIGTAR
The assay can be described thus: Human muscarinic receptor assay M4, [3H]4-DAMP binding. As to the method:
(§1) Human Muscarinic Receptor Assay
(§2) Cell membrane homogenates (16 μg protein) are incubated for 60 min at 22° C. with 0.2 nM [3H]4-DAMP in the absence or presence of the test compound in a buffer containing 10 mM Tris-HCl (pH 7.4) and 2 mM EDTA. Nonspecific binding is determined in the presence of 1 μM atropine. Following incubation, the samples are filtered rapidly under vacuum through glass fiber filters (GF/B, Packard) presoaked with 0.3% PEI and rinsed several times with ice-cold 50 mM Tris-HCl using a 96-sample cell harvester (Unifilter, Packard). The filters are dried then counted for radioactivity in a scintillation counter (Topcount, Packard) using a scintillation cocktail (Microscint 0, Packard). The results are expressed as a percent inhibition of the control radioligand specific binding. The standard reference compound is 4-DAMP, which is tested in each experiment at several concentrations to obtain a competition curve from which its Ki and IC50 are calculated.

Assay [2] deals with T2, Human muscarinic receptor M3 (Homo sapiens, UniProt P20309).
T2 construct: host or cells: cell membrane homogenates
The assay can be described thus: Human muscarinic receptor assay M3, [3H]4-DAMP binding. Conditions: for Ki: 0.2 nM [3H]4-DAMP, cell membrane homogenates. The method, then:
as §1
as §2, with “(8” for “(16”

A word on the Ki: it is a dissociation constant, usually derived from enzyme kinetics or from competition with a known ligand. In general, inhibition refers to the percentage by which the read-out fell short of the control.

T2 sequence (P20309 whole entry): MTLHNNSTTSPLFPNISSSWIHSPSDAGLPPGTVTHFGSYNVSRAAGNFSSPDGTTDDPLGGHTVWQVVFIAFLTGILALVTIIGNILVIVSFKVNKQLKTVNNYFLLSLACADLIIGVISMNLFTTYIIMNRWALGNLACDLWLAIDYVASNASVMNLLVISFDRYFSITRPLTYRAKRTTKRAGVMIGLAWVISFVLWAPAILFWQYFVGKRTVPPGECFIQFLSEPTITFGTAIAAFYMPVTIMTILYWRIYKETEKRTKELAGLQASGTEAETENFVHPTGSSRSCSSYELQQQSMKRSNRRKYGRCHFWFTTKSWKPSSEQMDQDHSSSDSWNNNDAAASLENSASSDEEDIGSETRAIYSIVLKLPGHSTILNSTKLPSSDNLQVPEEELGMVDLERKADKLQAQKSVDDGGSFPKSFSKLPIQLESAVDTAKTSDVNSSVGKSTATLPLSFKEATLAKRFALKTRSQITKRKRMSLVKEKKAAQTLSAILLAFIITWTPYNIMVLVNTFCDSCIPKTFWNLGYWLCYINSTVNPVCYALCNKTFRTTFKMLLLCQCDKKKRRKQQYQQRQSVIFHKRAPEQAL

Regarding `CN1C2CCC1CC(NC(=O)C(C)(CO)c1ccccc1)C2` (centres unmarked), the results for the Ki in assay [1] and in assay [2] were 83 nM and 150 nM, respectively.
Turning to `CCC(CO)(C(=O)OC1CC2CCC(C1)N2C)c1ccccc1` (centres unmarked), the values for the inhibitory constant (Ki) in assay [1] and in assay [2] were 0.71 nM and 1.3 nM, respectively.
Consider `CN1C2CCC1CC(OC(=O)C(C)(CF)c1ccccc1)C2` (centres unmarked), for which the Ki in assay [1] is 5.8 nM; in assay [2], 14 nM.
Consider `CN1C2CCC1CC(OC(=O)C(CO)(CC1CC1)c1ccccc1)C2` (centres unmarked), for which the figures for the inhibitory constant (Ki) in assay [1] and in assay [2] were 0.57 nM and 1.3 nM, respectively.
In the case of `CN1C2CCC1CC(OC(=O)C(C)(CO)c1ccccc1)C2` (centres unmarked), the Ki came to 0.58 nM in assay [1] and 2 nM in assay [2].
For `CN1C2CCC1CC(OC(=O)C(F)(CO)c1ccccc1)C2` (centres unmarked) the same measures were 0.48 nM and 2.9 nM.
Turning to `COc1ccc(CC(CO)(C(=O)OC2CC3CCC(C2)N3C)c2ccccc2)cc1` (centres unmarked), in assay [1] (read-out: percent inhibition of the control radioligand specific binding, M4), the inhibition at 1 µM was less than 50%. In addition, the inhibition constant (Ki) in assay [2] stood at 610 nM.
In the case of `CN1C2CCC1CC(OC(=O)C(CO)(CC(F)(F)F)c1ccccc1)C2` (centres unmarked), the Ki in assay [1] was found to be 1.7 nM; in assay [2], 2 nM.
For `CN1C2CCC1CC(OC(=O)C(CO)(CO)c1ccccc1)C2` (centres unmarked), the Ki in assay [1] is 3 nM; in assay [2] it was 4.1 nM.
Take `CN1C2CCC1CC(OC(=O)C(CO)(Cc1ccccc1)c1ccccc1)C2` (centres unmarked): the Ki in assay [1] (0.2 nM [3H]4-DAMP, cell membrane homogenates, read-out: Ki M4) worked out at 230 nM. Moreover, the inhibition at 1 µM in assay [2] (@ 1 μM, read-out: percent inhibition of the control radioligand specific binding, M3) is less than 50%.
`CN1C2CCC1CC(OC(=O)C(CO)(Cc1ccc(F)cc1)c1ccccc1)C2` (centres unmarked): the inhibitory constant (Ki) came out at 200 nM in assay [1] and 310 nM in assay [2].
On to `COCC(C)(C(=O)OC1CC2CCC(C1)N2C)c1ccccc1` (centres unmarked), for which the results for the Ki in assay [1] and in assay [2] were 7.4 nM and 13 nM, respectively.
The corresponding values for `CN1C2CCC1CC(OC(=O)C(C)(CO)c1cccs1)C2` (centres unmarked) are 0.39 nM and 0.78 nM.
